Reference: ChEMBL document CHEMBL4422644, “Synthesis and evaluation of α-aminoacyl amides as antitubercular agents effective on drug resistant tuberculosis” (Eur J Med Chem, 2019)
Values after ≈ are worked out from the molar mass of the structure shown.

Assays:
Type in all cases: functional
[1] = test system: Mycobacterium tuberculosis; experiment: Antitubercular activity against isoniazid/ethionamide resistant Mycobacterium tuberculosis isolate 1 after 7 days; details: isolate 1, 168 h
[2] = test system: Mycobacterium tuberculosis; experiment: Antitubercular activity against isoniazid/ethionamide resistant Mycobacterium tuberculosis isolate 2 after 7 days; details: isolate 2, 168 h
[3] = test system: Mycobacterium tuberculosis; experiment: Antitubercular activity against multidrug-resistant Mycobacterium tuberculosis isolate 3 after 7 days; details: isolate 3, 168 h
[4] = test system: Mycobacterium tuberculosis; experiment: Antitubercular activity against multidrug-resistant Mycobacterium tuberculosis isolate 4 after 7 days; details: isolate 4, 168 h
[5] = test system: Mycobacterium tuberculosis; experiment: Antitubercular activity against isoniazid/rifampicin resistant Mycobacterium tuberculosis isolate 5 after 7 days; details: isolate 5, 168 h
[6] = test system: Mycobacterium tuberculosis; experiment: Antitubercular activity against multidrug-resistant Mycobacterium tuberculosis isolate 6 after 7 days; details: isolate 6, 168 h
[7] = test system: Mycobacterium tuberculosis; experiment: Antitubercular activity against multidrug-resistant Mycobacterium tuberculosis isolate 7 after 7 days; details: isolate 7, 168 h
[8] = test system: Mycobacterium tuberculosis; experiment: Antitubercular activity against multidrug-resistant Mycobacterium tuberculosis isolate 8 after 7 days; details: isolate 8, 168 h

| Structure (SMILES) | MIC [1] | MIC [2] | MIC [3] | MIC [4] | MIC [5] | MIC [6] | MIC [7] | MIC [8] |
| --- | --- | --- | --- | --- | --- | --- | --- | --- |
| Cc1nc(C)c(C(=O)N(c2cccc(C)c2C)C(C(=O)NC2CCCCC2)c2cccnc2)s1 (stereo not drawn) | 4 µg/mL (≈ 8.39 µM) | 1 µg/mL (≈ 2.1 µM) | 1 µg/mL (≈ 2.1 µM) | 2 µg/mL (≈ 4.2 µM) | 2 µg/mL (≈ 4.2 µM) | 8 µg/mL (≈ 16.8 µM) | 2 µg/mL (≈ 4.2 µM) | 8 µg/mL (≈ 16.8 µM) |
| CC[C@@H](CO)NCCN[C@@H](CC)CO [ETHAMBUTOL] | 2 µg/mL (≈ 9.79 µM) | 4 µg/mL (≈ 19.6 µM) | 4 µg/mL (≈ 19.6 µM) | 8 µg/mL (≈ 39.2 µM) | – | 4 µg/mL (≈ 19.6 µM) | 8 µg/mL (≈ 39.2 µM) | > 8 µg/mL |
| NNC(=O)c1ccncc1 [ISONIAZID] | 5 µg/mL (≈ 36.5 µM) | > 0.2 µg/mL | > 0.2 µg/mL | > 5 µg/mL | 5 µg/mL (≈ 36.5 µM) | > 5 µg/mL | 5 µg/mL (≈ 36.5 µM) | 5 µg/mL (≈ 36.5 µM) |
| NC[C@H]1O[C@H](O[C@H]2[C@H](O)[C@@H](O[C@H]3O[C@H](CO)[C@@H](O)[C@H](N)[C@H]3O)[C@H](N)C[C@@H]2N)[C@H](O)[C@@H](O)[C@@H]1O [KANAMYCIN] | 16 µg/mL (≈ 33 µM) | 32 µg/mL (≈ 66 µM) | 32 µg/mL (≈ 66 µM) | 8 µg/mL (≈ 16.5 µM) | – | 8 µg/mL (≈ 16.5 µM) | 8 µg/mL (≈ 16.5 µM) | 16 µg/mL (≈ 33 µM) |
| CO[C@H]1/C=C/O[C@@]2(C)Oc3c(C)c(O)c4c(O)c(c(/C=N/N5CCN(C)CC5)c(O)c4c3C2=O)NC(=O)/C(C)=C\C=C\[C@H](C)[C@H](O)[C@@H](C)[C@@H](O)[C@@H](C)[C@H](OC(C)=O)[C@@H]1C [RIFAMPIN] | 32 µg/mL (≈ 38.9 µM) | 4 µg/mL (≈ 4.86 µM) | 64 µg/mL (≈ 77.8 µM) | 32 µg/mL (≈ 38.9 µM) | 128 µg/mL (≈ 156 µM) | 128 µg/mL (≈ 156 µM) | > 128 µg/mL | > 128 µg/mL |
